Earlier results in patent US5981529A, “Substituted indolylpropyl-piperazine derivatives as 5-HT1D α agonists” (Merck Sharp & Dohme Limited, priority 1995, dated 1999).

Experiments:
[1] = system: human 5-HT1Dα and 5-HT1Dβ receptor subtypes; conditions: cf. WO-A-91/17174, Table 1
[2] = therapeutic doses

CNS(=O)(=O)Cc1ccc2[nH]cc(CCN(C)C)c2c1 [sumatriptan]
discrimination between the human 5-HT1Dα and 5-HT1Dβ receptor subtypes [1]: barely discriminates between the human 5-HT1Dα and 5-HT1Dβ receptor subtypes
adverse events on administration to humans [2]: certain adverse cardiovascular events
